26 molecules from ChEMBL document CHEMBL1201862, “PubChem BioAssay data set” (2004) can be followed below.

Test systems include DLD-1; DMS-114; DMS-273; HOP-18; M19-MEL; RXF 631; SNB-78; LXFL 529; XF498.
What all share (experiment): growth of human tumour cells (NCI), 48 h

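Tested at 5 concentrations; 48 h exposure; 96-well plates; endpoints linearly interpolated, else capped at highest concentration. The concentration for 50% growth inhibition is given as GI50.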 The source made the active and inactive calls. Rule as the data show it: active = GI50 up to about 1.1 µM and inactive = higher. Some results are limits rather than exact numbers.

Regarding `CC1=C(/C=C/C(C)=C/C=C/C(C)=C/C=C/C=C(C)/C=C/C=C(C)/C=C/C2=C(C)C(=O)C(O)CC2(C)C)C(C)(C)CC(O)C1=O` (stereo not drawn), the GI50 with DLD-1, in the assay with DMS-114, in the assay with DMS-273, in the assay on HOP-18, in the assay with M19-MEL and in the assay with RXF 631 was > 100 µM (inactive) throughout. The GI50 with SNB-78 is > 100 µM (inactive).

Consider `CCC(=O)OC1CCn2c1nc1c2C(=O)C(C)=C(N2CC2)C1=O` (stereo not drawn), for which the GI50 was 0.105 µM (active) in the assay with DLD-1; 0.12 µM (active) in the assay with DMS-114; 0.045 µM (active) with DMS-273; 0.0439 µM (active) with HOP-18; 0.0933 µM (active) in the assay on LXFL 529; 0.146 µM (active) in the assay with M19-MEL. Moreover, the figures for the GI50 with SNB-78 and in the assay with XF498 were 0.462 µM (active) and 0.0345 µM (active), respectively.

On to `CCN(CC)c1ccc(C(=C2C=CC(=[N+](CC)CC)C=C2)c2ccccc2)cc1`, for which the GI50 with DLD-1 was 0.0274 µM (active); with DMS-114 it was 0.0156 µM (active); with DMS-273, 0.0304 µM (active); in the assay on LXFL 529 it was 0.0225 µM (active); in the assay with M19-MEL, 0.0379 µM (active); in the assay on SNB-78 it was 0.044 µM (active). Also, in the assay with XF498, the GI50 is 0.0149 µM (active).

For `c1ccc2c3nc(C4CCCC4)nc-3c(NC3CCCC3)[nH]c2c1`, the GI50 in the assay with DLD-1 was 30 µM (inactive); with DMS-114, 17.8 µM (inactive); in the assay on DMS-273 it was 8.43 µM (inactive); in the assay with HOP-18 it was 16 µM (inactive); in the assay on LXFL 529, 8.32 µM (inactive); in the assay on M19-MEL it was 13.2 µM (inactive). Moreover, the GI50 with SNB-78 was 45.3 µM (inactive); in the assay with XF498, 19.6 µM (inactive).

As to `O=c1c2cc3ccccc3n2c(=O)c2cc3ccccc3n12`, the GI50 in the assay with DLD-1, with DMS-114, in the assay with DMS-273, in the assay on HOP-18, in the assay on LXFL 529 and with M19-MEL was > 100 µM (inactive) in each case. Moreover, the GI50 with SNB-78 and with XF498 was > 100 µM (inactive) each time.

Take `CC(C)N(O)C(=N)c1ccccc1`: the GI50 with DLD-1 was > 100 µM (inactive); in the assay with DMS-114, > 100 µM (inactive); with HOP-18, 0.0473 µM (active); in the assay with LXFL 529, > 100 µM (inactive); with M19-MEL it was > 100 µM (inactive); in the assay with SNB-78, > 100 µM (inactive).

Regarding `Cc1cc(N(CCC#N)S(C)(=O)=O)ccc1C=O`, the GI50 in the assay on DLD-1, with DMS-114, in the assay on DMS-273, in the assay with HOP-18, in the assay with LXFL 529 and with SNB-78 was > 100 µM (inactive) throughout.

As for `CCOC(=O)/N=c1\ss/c(=N\C(=S)N(C)C)n1-c1ccccc1`, the GI50 in the assay on DLD-1 was > 10 µM (inactive); in the assay with DMS-114, 0.453 µM (active); in the assay with DMS-273 it was 2.15 µM (inactive); in the assay with HOP-18 it was > 10 µM (inactive); with LXFL 529 it was 4.44 µM (inactive); in the assay with M19-MEL, 0.834 µM (active). Further, the GI50 in the assay on SNB-78 was 36.3 µM (inactive); in the assay with XF498, 28.8 µM (inactive).

For the molecule `O=P(c1ccccc1)(c1ccccc1)C1CC=C2CCCCCC2C1` (stereo not drawn), the GI50 with DMS-114 was 24.5 µM (inactive); in the assay with DMS-273, 27.4 µM (inactive); in the assay with HOP-18, 19.2 µM (inactive); in the assay with LXFL 529, 21.4 µM (inactive); with M19-MEL, 36 µM (inactive); in the assay on RXF 631 it was 27.2 µM (inactive). In addition, the results for the GI50 with SNB-78 and with XF498 were 40.2 µM (inactive) and 33 µM (inactive), respectively.

For `CCC(=O)Nc1nc2c(ncn2C2OC(COC(=O)CC)C(OC(=O)CC)C2OC(=O)CC)c(=O)[nH]1` (stereo not drawn), the GI50 with DMS-273, in the assay on LXFL 529, in the assay on M19-MEL and in the assay on SNB-78 was > 100 µM (inactive) each time.

Turning to `O=c1c2cc(Br)ccc2[nH]c(=S)n1-c1ccc(Br)cc1`, the GI50 in the assay with DLD-1, in the assay on DMS-114, with HOP-18, in the assay on LXFL 529, with M19-MEL and with SNB-78 was > 100 µM (inactive) each time.

Take `O=CCCCC(Sc1ccccc1)Sc1ccccc1`: the GI50 was 15.3 µM (inactive) in the assay with DLD-1; 23.9 µM (inactive) in the assay with DMS-114; 17.3 µM (inactive) in the assay on DMS-273; 13 µM (inactive) with LXFL 529; 18.1 µM (inactive) in the assay on M19-MEL; 20.6 µM (inactive) with RXF 631. Moreover, the GI50 was 15.3 µM (inactive) in the assay on SNB-78 and 19 µM (inactive) in the assay with XF498.

`COC(=O)C(=O)C(C#N)c1ccc(CC#N)cc1` (stereo not drawn): the GI50 in the assay with DLD-1, with DMS-273, in the assay on LXFL 529, in the assay on M19-MEL, with SNB-78 and with XF498 was > 100 µM (inactive) each time.

With `CC1(C)OC(=O)C(=C2CCC(C(=O)Nc3cccc(C(F)(F)F)c3)N2)C(=O)O1` (stereo not drawn), the GI50 in the assay on DLD-1 is > 100 µM (inactive); in the assay on DMS-114, 37.4 µM (inactive); with DMS-273, > 100 µM (inactive); in the assay on HOP-18, > 100 µM (inactive); in the assay on LXFL 529, 39.6 µM (inactive); in the assay on M19-MEL, 60.8 µM (inactive). Further, the GI50 was 87.7 µM (inactive) with SNB-78 and 31.3 µM (inactive) in the assay on XF498.

As to `CCOc1ccc(/N=C/c2ccnc3ccccc23)cc1`, the GI50 in the assay on DLD-1 was 4.57 µM (inactive); in the assay on DMS-114 it was 17.3 µM (inactive); with DMS-273, 28.1 µM (inactive); with HOP-18 it was > 100 µM (inactive); with LXFL 529, 16.2 µM (inactive); with M19-MEL, > 71.1 µM (inactive). Also, the values for the GI50 in the assay on SNB-78 and in the assay on XF498 were > 60.1 µM (inactive) and > 100 µM (inactive), respectively.

With `CCO[C@@H]1C2C=CC(C2)[C@H]1[N+](=O)[O-]` (stereo partly drawn), the GI50 with DLD-1, in the assay on DMS-114, in the assay with DMS-273, with HOP-18, with LXFL 529 and with M19-MEL was > 100 µM (inactive) each time. Moreover, the GI50 with SNB-78 and in the assay with XF498 was > 100 µM (inactive) in each case.

Regarding `O=C[C@]12CC=C3OC4OC5(CCCCC5)OC4[C@H]3[C@H]1C(=O)C=CC2=O` (stereo partly drawn), the GI50 is 17.3 µM (inactive) in the assay with DLD-1; 19.1 µM (inactive) in the assay with DMS-114; 39.2 µM (inactive) in the assay with DMS-273; 19 µM (inactive) in the assay on LXFL 529; 23.1 µM (inactive) in the assay with M19-MEL; 35.6 µM (inactive) in the assay on RXF 631. For the same molecule, the figures for the GI50 in the assay with SNB-78 and in the assay on XF498 were 14.2 µM (inactive) and 14.6 µM (inactive), respectively.

For the molecule `CCCC/C=C/C=C/C=C/CCCCCCCC(=O)OCC(COC(=O)CCCCCCC/C=C/C1C=CC(CCCC)C(C(=O)O)C1C(=O)O)OC(=O)CCCCCCC/C=C/C=C/C=C/CCCC.OCCNCO` (stereo not drawn), the GI50 in the assay on DLD-1 was 20 µM (inactive); in the assay with DMS-114, 10.9 µM (inactive); in the assay on DMS-273 it was 16.3 µM (inactive); in the assay on HOP-18 it was 17.2 µM (inactive); in the assay with LXFL 529 it was 17.8 µM (inactive); with M19-MEL, 17.5 µM (inactive).

For the molecule `c1cc(-c2cn[nH]c2)cc(-c2cn[nH]c2)c1`, the GI50 in the assay on DLD-1 is 33.7 µM (inactive); in the assay on DMS-114, 45.9 µM (inactive); in the assay with DMS-273, 30.6 µM (inactive); in the assay on M19-MEL, 71.3 µM (inactive); in the assay with RXF 631, 38 µM (inactive); in the assay on SNB-78, 80.7 µM (inactive).

In the case of `COc1ccc(/C=C2\SC(c3ccc(OC)cc3)N(NC(=O)Cc3ccccc3)C2=O)cc1` (stereo not drawn), the GI50 with DLD-1, in the assay on DMS-114, with DMS-273, in the assay on HOP-18, in the assay on LXFL 529 and with M19-MEL was > 100 µM (inactive) each time.

Turning to `COc1ccc(/C=N/N=C(\N)NO)cc1F`, the GI50 in the assay on DLD-1 is 53.7 µM (inactive); in the assay on DMS-273, 17.5 µM (inactive); with HOP-18 it was 13.8 µM (inactive); in the assay on LXFL 529, 11.6 µM (inactive); with M19-MEL, 21.6 µM (inactive); with RXF 631, 14.5 µM (inactive). For the same molecule, the GI50 with SNB-78 is 97.3 µM (inactive); in the assay with XF498 it was 25.3 µM (inactive).

Turning to `COc1ccc2nc3ccccc3c(NCCN(C)CCCl)c2c1`, the GI50 with DLD-1 is 0.524 µM (active); in the assay with DMS-114 it was 0.752 µM (active); in the assay on DMS-273 it was 0.412 µM (active); in the assay on HOP-18, 2.06 µM (inactive); in the assay with LXFL 529, 0.393 µM (active); with M19-MEL it was 0.906 µM (active). In addition, the GI50 in the assay on SNB-78 was 0.902 µM (active); with XF498 it was 0.514 µM (active).

For the molecule `O=C(CC1=Nc2nnc(-c3nnc4n3C(=O)C(CC(=O)c3cccnc3)=N4)n2C1=O)c1cccnc1`, the GI50 with DLD-1, with DMS-114, with DMS-273, in the assay on LXFL 529, with M19-MEL and in the assay with RXF 631 was > 100 µM (inactive) each time. Also, in the assay with SNB-78, the GI50 is > 100 µM (inactive).

Take `CS(=O)(=O)N(CCC#N)c1ccc(/C=C2\N=C(c3ccccc3Cl)OC2=O)cc1`: the GI50 with DLD-1, in the assay with DMS-114, in the assay on DMS-273, with LXFL 529, in the assay with M19-MEL and in the assay with SNB-78 was > 100 µM (inactive) each time. Besides, the GI50 in the assay on XF498 is > 100 µM (inactive).

Turning to `CC1(C)O[C@H]2OC3CCC(=O)CC3(O)[C@H]2O1` (stereo partly drawn), the GI50 is > 100 µM (inactive) in the assay with DLD-1; > 100 µM (inactive) in the assay on DMS-114; > 100 µM (inactive) in the assay on M19-MEL; > 100 µM (inactive) in the assay with SNB-78; 0.507 µM (active) in the assay on XF498.

Turning to `C[C@@]12CCC(=O)c3coc(c31)C(=O)c1cc3c(cc12)C(=O)C=CC3=O` [HELENAQUINONE], the GI50 is 15.4 µM (inactive) in the assay on DLD-1; 14 µM (inactive) in the assay with DMS-114; 15.5 µM (inactive) in the assay with DMS-273; 17.3 µM (inactive) with HOP-18; 17.4 µM (inactive) with LXFL 529; 6.05 µM (inactive) with M19-MEL. Also, the GI50 with SNB-78 was 22 µM (inactive); in the assay with XF498 it was 18.9 µM (inactive).
